Four molecules from patent publication US4814332A, “Antimicrobial 1,3-disubstituted/imidazolium salts” (Hoffman-La Roche Inc., priority 1986, dated 1989) can be followed below.

The subject of one data set is Litomosoides carinii. As to the kind of experiment: filaricidal activity on cotton rats infected with Litomosoides carinii. It is filed as in vivo, Litomosoides carinii (in cotton rats, Sigmodon hispidus). The conditions noted are these: sc, 1008 h, s.c., L. carinii-infected cotton rats, treated 14 weeks after infection, dissected 42 days after treatment, Probit analysis, read-out: ED90 (dosage at which 90% of the worms removed from the pleural cavity are dead). The protocol: (§1) The filaricidal activity of the compounds of formula I can be determined, for example, on cotton rats (Sigmodon hispidus) which have been infected with Litomosoides carinii. The infection with L. carinii is transmitted by the blood-sucking mite Bdellonyssus bacoti in which the development of the microfilaria in infectious larvae takes place. The cotton rats are infected by exposing them to bites of infected mites. After fourteen (14) weeks, the infected groups of 2-4 animals are treated subcutaneously with the compound to be tested. Forty two (42) days after treatment with the compound to be tested, the experimental animals are dissected, and the adult filaria are removed from the pleural cavity. Living and dead or encapsulated worms are separated from one another and weighed. The filaricidal activity is expressed as the percentage proportion of dead macrofilaria per treatment group. The ED90 is then determined by means of Probit analysis using the values from different dosage groups. The ED90 is that dosage at which 90% of the worms removed from the pleural cavity are dead. In the following Table, the results which were obtained in the previously described test with representative members of the class of compound defined by formula I are compiled. Moreover, the Table contains data concerning the acute toxicity of some of the compounds of formula I in mg per kg obtained after single oral administration to mice.

Data set [1] is described as follows: acute toxicity after single oral administration to mice. The note with it: mouse, in vivo, p.o. The protocol: as §1, with “Moreover, the Table contains data concerning the acute toxicity of some of the compounds of formula I in mg per kg obtained after single oral administration to mice.” left out

A value given as a limit tells only on which side of the number the result lay.

On to `CN(C)c1ccc(C=Nn2cc[n+](N=Cc3ccc(N(C)C)cc3)c2-c2ccccc2)cc1.[Cl-]` [Compound D, 1,3-bis[[p-(dimethylamino)benzylidene]amino]-2-phenylimidazolium chloride], for which, in the data set on Litomosoides carinii, the ED90 is under 1 mg/kg. Moreover, the LD50 in data set [1] is 1250 to 2500 mg/kg.
As to `CN(C)c1ccc(C=Nn2cc[n+](N=Cc3ccc(N(C)C)cc3)c2C=CN2CCCCC2)cc1.[Cl-]` [Compound B, 1,3-bis[[p-(dimethylamino)benzylidene]amino]-2-(2-piperidinovinyl)imidazolium chloride], in the data set on Litomosoides carinii, the ED90 amounted to 2 mg/kg.
With `CN(C)c1ccc(C=Nn2cc[n+](N=Cc3ccc(N(C)C)cc3)c2C=CN2CCOCC2)cc1.[Cl-]` [Compound C, 1,3-bis[[p-(dimethylamino)benzylidene]amino]-2-(2-morpholinovinyl)imidazolium chloride], the ED90 in the data set with Litomosoides carinii is 0.55 mg/kg.
Take `CN(C)C=Cc1n(N=Cc2ccc(N(C)C)cc2)cc[n+]1N=Cc1ccc(N(C)C)cc1.[Cl-]` [Compound A, 1,3-bis[[p-(dimethylamino)benzylidene]amino]-2-[2-(dimethylamino)vinyl]imidazolium chloride]: the ED90 in the data set on Litomosoides carinii was 1 mg/kg. For the same molecule, the LD50 in data set [1] lay in the range of 312 to 625 mg/kg.

For orientation: LD50 means the dose at which mortality reaches 50%. A high value points to lower toxicity.
